ChEMBL document CHEMBL4304811, “Development of a Water-Soluble Indolylmaleimide Derivative IM-93 Showing Dual Inhibition of Ferroptosis and NETosis” (ACS Med Chem Lett, 2019)

Experiments:
[1] = target: Vascular endothelial growth factor receptor 1 (Homo sapiens) (UniProt P17948); assay: Binding affinity to wild-type human partial length FLT1 (R781 to F1239 residues) expressed in bacterial expression system assessed as residual binding level at 10 uM by Kinomescan method relative to control
[2] = target: Tyrosine-protein kinase Tec (Homo sapiens) (UniProt P42680); assay: Binding affinity to wild-type human partial length TEC (L341 to D620 residues) expressed in bacterial expression system assessed as residual binding level at 10 uM by Kinomescan method relative to control
[3] = target: Serine/threonine-protein kinase SIK2 (Homo sapiens) (UniProt Q9H0K1); assay: Binding affinity to wild-type human full length SIK2 (M1 to N926 residues) expressed in bacterial expression system assessed as residual binding level at 10 uM by Kinomescan method relative to control
[4] = target: Protein kinase C eta type (Homo sapiens) (UniProt P24723); assay: Binding affinity to wild-type human partial length PRKCH (S324 to P683 residues) expressed in bacterial expression system assessed as residual binding level at 10 uM by Kinomescan method relative to control
[5] = target: Serine/threonine-protein kinase Sgk3 (Homo sapiens) (UniProt Q96BR1); assay: Binding affinity to wild-type human partial length SGK3 (M119 to L496 residues) expressed in mammalian expression system assessed as residual binding level at 10 uM by Kinomescan method relative to control
[6] = target: Myotonin-protein kinase (Homo sapiens) (UniProt Q09013); assay: Binding affinity to wild-type human partial length DMPK (V47 to V415 residues) expressed in bacterial expression system assessed as residual binding level at 10 uM by Kinomescan method relative to control
[7] = target: Mitogen-activated protein kinase kinase kinase 15 (Homo sapiens) (UniProt Q6ZN16); assay: Binding affinity to wild-type human partial length MAP3K15 (T625 to L932 residues) expressed in mammalian expression system assessed as residual binding level at 10 uM by Kinomescan method relative to control
[8] = target: Cyclin-dependent kinase 4/cyclin D1 (Homo sapiens) (UniProt P11802+P24385); assay: Binding affinity to wild-type human full length CDK4/cyclinD1 (M1 to E303 residues) expressed in mammalian expression system assessed as residual binding level at 10 uM by Kinomescan method relative to control
[9] = target: Ephrin type-B receptor 2 (Homo sapiens) (UniProt P29323); assay: Binding affinity to wild-type human partial length EPHB2 (I597 to L902 residues) expressed in bacterial expression system assessed as residual binding level at 10 uM by Kinomescan method relative to control
[10] = target: Cyclin-dependent kinase-like 1 (Homo sapiens) (UniProt Q00532); assay: Binding affinity to wild-type human full length CDKL1 (M1 to I358 residues) expressed in mammalian expression system assessed as residual binding level at 10 uM by Kinomescan method relative to control
[11] = target: Serine/threonine-protein kinase haspin (Homo sapiens) (UniProt Q8TF76); assay: Binding affinity to wild-type human partial length HASPIN (I452 to K798 residues) expressed in mammalian expression system assessed as residual binding level at 10 uM by Kinomescan method relative to control
[12] = target: Serine/threonine-protein kinase RIO2 (Homo sapiens) (UniProt Q9BVS4); assay: Binding affinity to wild-type human partial length RIOK2 (M1 to D313 residues) expressed in mammalian expression system assessed as residual binding level at 10 uM by Kinomescan method relative to control
[13] = target: Serine/threonine-protein kinase TAO1 (Homo sapiens) (UniProt Q7L7X3); assay: Binding affinity to wild-type human partial length TAOK1 (M1 to A320 residues) expressed in mammalian expression system assessed as residual binding level at 10 uM by Kinomescan method relative to control
[14] = tested on: ALK tyrosine kinase receptor (Homo sapiens), Q9UM73 [L1196M]; assay: Binding affinity to […] human partial length ALK L1196M mutant (I1088 to E1409 residues) expressed in mammalian expression system assessed as residual binding level at 10 uM by Kinomescan method relative to control
[15] = target: Serine/threonine-protein kinase PLK2 (Homo sapiens) (UniProt Q9NYY3); assay: Binding affinity to wild-type human partial length PLK2 (H58 to F354 residues) expressed in mammalian expression system assessed as residual binding level at 10 uM by Kinomescan method relative to control
[16] = target: Serine/threonine-protein kinase pim-1 (Homo sapiens) (UniProt P11309); assay: Binding affinity to wild-type human partial length PIM1 (A15 to K313 residues) expressed in bacterial expression system assessed as residual binding level at 10 uM by Kinomescan method relative to control
[17] = target: Mitogen-activated protein kinase 10 (Homo sapiens) (UniProt P53779); assay: Binding affinity to wild-type human partial length JNK3 (V28 to Q422 residues) expressed in mammalian expression system assessed as residual binding level at 10 uM by Kinomescan method relative to control
[18] = target: Serine/threonine-protein kinase 38 (Homo sapiens) (UniProt Q15208); assay: Binding affinity to wild-type human partial length NDR1 (N33 to E449 residues) expressed in mammalian expression system assessed as residual binding level at 10 uM by Kinomescan method relative to control
[19] = target: Dual specificity tyrosine-phosphorylation-regulated kinase 1A (Homo sapiens) (UniProt Q13627); assay: Binding affinity to wild-type human partial length DYRK1A (H129 to S509 residues) expressed in mammalian expression system assessed as residual binding level at 10 uM by Kinomescan method relative to control
[20] = target: Protein kinase C delta type (Homo sapiens) (UniProt Q05655); assay: Binding affinity to wild-type human partial length PRKCD (Q328 to D676 residues) expressed in bacterial expression system assessed as residual binding level at 10 uM by Kinomescan method relative to control
[21] = target: Mitogen-activated protein kinase kinase kinase 9 (Homo sapiens) (UniProt P80192); assay: Binding affinity to wild-type human partial length MLK1 (V88 to W426 residues) expressed in bacterial expression system assessed as residual binding level at 10 uM by Kinomescan method relative to control
[22] = target: Cyclin-dependent kinase 18 (Homo sapiens) (UniProt Q07002); assay: Binding affinity to wild-type human full length PCTK3 (M3 to F474 residues) expressed in bacterial expression system assessed as residual binding level at 10 uM by Kinomescan method relative to control
[23] = target: Cyclin-dependent kinase 9 (Homo sapiens) (UniProt P50750); assay: Binding affinity to wild-type human full length CDK9 (M1 to F372 residues) expressed in bacterial expression system assessed as residual binding level at 10 uM by Kinomescan method relative to control
[24] = target: Proto-oncogene tyrosine-protein kinase receptor Ret (Homo sapiens) (UniProt P07949); assay: Binding affinity to wild-type human partial length RET (E713 to D1014 residues) expressed in bacterial expression system assessed as residual binding level at 10 uM by Kinomescan method relative to control

CC(C)N1C(=O)C(NCCCN(C)C)=C(c2cn(C)c3ccccc23)C1=O.Cl
Activity [1]: 82% | Activity [2]: 99% | Activity [3]: 100% | Activity [4]: 99% | Activity [5]: 89% | Activity [6]: 100% | Activity [7]: 94% | Activity [8]: 88% | Activity [9]: 97% | Activity [10]: 73% | Activity [11]: 100% | Activity [12]: 91% | Activity [13]: 78% | Activity [14]: 90% | Activity [15]: 97% | Activity [16]: 100% | Activity [17]: 85% | Activity [18]: 93% | Activity [19]: 87% | Activity [20]: 100% | Activity [21]: 100% | Activity [22]: 99% | Activity [23]: 100% | Activity [24]: 98%
